{"source": "patent US9623031B2", "about": "“Compositions, methods and kits for treating cancer” (priority 2011, dated 2017)", "key": {"[1]": {"tested_on": "imatinib-resistant BCR-ABL(GFP)+ cells", "experiment": "Imatinib-resistant BCR-ABL(GFP)+ LSCs treated ex vivo", "assay_type": "cell-based, mouse", "conditions": "splenocytes after imatinib i.p. 1 wk and 1 week washout; 25 nM, 24 h", "procedure": "FIG. 8 is a graph showing that imatinib-resistant BCR-ABL(GFP)+ cells are targeted by Δ^12-PGJ3. […] The mice were followed for the development of leukemia. Mice that developed leukemia were euthanized and spleens were used as the source of LSCs.\nGFP+ LSCs were analyzed by flow cytometry."}, "[2]": {"tested_on": "BCR-ABL^+LSC (Kit^+Sca1^+Lin^−GFP^+)", "experiment": "Apoptosis of BCR-ABL+ LSCs treated ex vivo (annexin V, flow cytometry)", "assay_type": "cell-based, mouse", "procedure": "Apoptosis. Apoptosis of LSCs was performed using annexin V as described below in Supplementary Information and Methods.\nApoptosis. The LSCs were diluted in DMEM, resuspended using a 16-gauge needle, and collected by centrifugation. 1×10^5 cells were resuspended in 200 μl of binding buffer (0.1 M HEPES with 1.4 M NaCl, 25 mM CaCl2, pH 7.4). Annexin V FITC (BD Biosciences) was incubated with cells for 15 min on ice followed by flow cytometric analysis.\nThe ability of CyPGs derived from arachidonic acid (2 series PGs) to induce apoptosis was tested in cultures of LSCs from FV infected mice and in the murine CML model. […] 15d-PGJ2 is known as a PPAPγ agonist. […] In FIG. 7C Δ^12-PGJ3, 15d-PGJ2 or 9,10-dihydro-15d-PGJ2 are tested for their ability to induce apoptosis in a murine CML model. […] The cells were stained with annexin V-FITC and analyzed by flow cytometry. Representative of N=4. […] Inset: Effect of rosiglitazone on the apoptosis of LSC. Rosiglitazone (0.1-2.0 μM) was incubated with LSC in the culture media for 36 h as described earlier and the cells were subjected to annexin-V staining followed by flow cytometry. […] LSC were treated ex vivo with indicated concentrations of each compound for 36 h.\nFollowing 36 h of incubation, apoptotic cells were quantified by annexin V staining. […] In a related study to address if Δ^12-PGJ3 treatment would cause any degranulation of granulocytes, a rat basophilic cell line ([…]) was treated with 100 nM Δ^12-PGJ3 and the degranulation was followed by quantitating the release of histamine and a second marker of degranulation, hexoseaminidase.\nIn this experiment, 500,000 BCR-ABL+ LSCs were plated in a 24-well plate followed and were treated with 25 nM PGD2Me or 100 nM ZK118182 (both are agonists of DP) for 24 h. GFP^+ cells were analyzed by flow cytometry. These agonists were purchased from Cayman Chemicals, MI."}, "NF-κB": {"tested_on": "NF-κB", "experiment": "NF-κB activation in sorted BCR-ABL+ LSCs (EMSA, Western blot)", "assay_type": "cell-based, mouse", "conditions": "25 nM, 0-6 h", "procedure": "The effect of Δ^12-PGJ3 on NF-κB and PPAPγ was examined. RAW264.7 macrophages were pretreated with DMSO, Δ^12-PGJ3 at 0.25, or 1.0 μM and subsequently stimulated with 100 ng/mL E. coli LPS for 4 h. The nuclear extracts were prepared and the binding of NΦκB to a ^32P-labeled consensus double stranded oligonucleotide probe was examined using gel shift analysis. NS=non-specific band. Lanes 1-5 represent untreated, LPS alone, DMSO+LPS, Δ^12-PGJ3 (0.25 μM)+LPS, and Δ^12-PGJ3 (1 μM)+LPS, respectively. BCR-ABL LSCs were sorted from spleens, plated, and treated with PBS, 25 nM Δ^12-PGJ3, or 9,10-dihydro 15d-PGJ2 for 0, 2 or 6 h. The cells were harvested and nuclear extracts were prepared using standard techniques. Ten μg of nuclear protein was used from each sample for the gel-shift reaction. As a positive control for NF-κB, nuclear extract from LPS-treated murine (RAW264.7) macrophages was used. Anti-p50 Ab was used with this positive control for a supershift, and excess ‘cold’ probe was used with the positive control as a ‘cold competitor’. A Western blot analysis was performed of the above-mentioned nuclear extracts from BCR-ABL LSCs treated with PBS, Δ^12-PGJ3 or 9,10-dihydro-15d-PGJ2 for various time periods (0-6 h) probed with anti-p65 and anti-β-actin antibodies. […]"}, "[3]": {"tested_on": "normal HSCs (MSCV-GFP^+HSC)", "experiment": "Effect on normal HSCs (MSCV-GFP+ HSC) treated ex vivo"}, "MCL-1": {"tested_on": "MCL-1", "experiment": "MCL-1 expression in primary AML cells (real time PCR)", "assay_type": "cell-based, human", "procedure": "MCL-1 expression in Δ^12-PGJ3 treated AML was examined. MCL-1 is an antiapoptotic gene that belongs to the Bcl-2 family. Total RNA and cDNA were isolated from primary AML cells as indicated above. MCl-1 expression was measured using real time PCR. (Hs01050896-ml, Applied Biosystems)."}, "[4]": {"tested_on": "MSCV-GFP^+ HSC transplanted mice (steady state hematopoiesis)", "experiment": "Control mice transplanted with MSCV-GFP+ HSCs, treated", "conditions": "mouse, in vivo", "quoted_text": "Induction of CML using MIGR-BCR-ABL retrovirus: MIGR-BCR-ABL and control MSCV-GFP retroviruses were obtained. […] C57BL/6 mice were treated with 5-fluorouracil (5-FU; 150 mg/Kg, Sigma, St. Louis, Mo.) to enrich for cycling HSCs. On day four after treatment bone marrow cells were harvested and infected with MIGR-BCR-ABL or MSCV-GFP control virus overnight in IMDM media containing 5% FCS and supplemented with 2.5 ng/ml IL-3 and 15 ng/ml SCF (R&D Systems Minneapolis, Minn.). 0.5×10^6 transduced cells were transplanted by retro-orbital injection into C57BL/6 recipient mice that were preconditioned with 950 Rads of irradiation. In order to increase the number of CML and control mice, 17 days after transplant GFP^+ spleen cells were isolated by FACS and 1×10^5 GFP^+ cells were transplanted into irradiated (950 Rads) secondary C57BL/6 recipients. Two weeks after transplant, mice were treated as indicated with CyPGs and vehicle control. For ex-vivo experiments, Kit^+Sca1^+Lin^−GFP^+ cells were isolated from the bone marrow or spleen of transplanted mice by FACS. The sorted cells were cultured in Methocult media M3334 (Stem Cell Technologies Vancouver BC) M3334 supplemented with Shh, SCF, and BMP4 and treated with the indicated CyPGs and vehicle controls for indicated time periods. […] The hematopoietic colonies (colony forming cells in culture, CFC) were scored. […]"}, "[5]": {"tested_on": "Human unfractionated bone marrow cells", "quoted_text": "Human unfractionated bone marrow cells (5×10^5 per well) were plated in methylcellulose complete media containing IL-3, GM-CSF, G-CSF, SCF and Epo supplemented with the indicated concentrations of drugs. Total colonies were counted after 12 days."}, "Survivin": {"tested_on": "Survivin", "experiment": "Survivin expression in human AML sample (RT-PCR)", "assay_type": "cell-based", "conditions": "6 h", "procedure": "Survivin expression in the human AML sample post Δ^12-PGJ3 treatments was examined. Total RNA was isolated from AML cells with indicated treatments (for 6 h) using Trizol (Invitrogen) cDNA was generated using Superscript II (Invitrogen) and cDNA were quantified by RT-PCR using SYBR green PCR master mix and primers that amplify a 76 nt PCR product. A Taqman probe for GAPDH (Applied biosystems) was used."}}, "note": "“Also recorded” adds a separate entry of the source."}
{"smiles": "CC/C=C\\C[C@H](O)C/C=C1/C(=O)C=C[C@@H]1C/C=C\\CCCC(=O)O", "note": "[Δ^12-PGJ3, Δ^12-prostaglandin J3]", "values": [{"measurement": "targeting of imatinib-resistant GFP+ LSCs", "setting": "[1]", "result": "can even target LSCs that are resistant to imatinib treatment"}, {"measurement": "apoptosis of BCR-ABL+LSCs", "setting": "[2]; 25 nM, annexin V, caspase 3 and caspase 8 activation", "result": "significant increase in apoptosis; also recorded: highly susceptible to apoptosis"}, {"measurement": "apoptosis of Sca1+GFP+Kit+ BCR-ABL+LSC from spleen", "setting": "[2]; 25-1000 nM, 36 h", "result": "significantly increased their apoptosis"}, {"measurement": "IC50", "setting": "[2]; Kit+Sca1+Lin−GFP+ LSCs from spleen of BCR-ABL mice, ex vivo 36 h, annexin V", "result": "~12", "unit": "nM"}, {"measurement": "NF-κB activation, EMSA and Western blot of nuclear extracts", "setting": "NF-κB", "result": "lack of activation of NF-κB"}, {"measurement": "effect on normal HSCs", "setting": "[3]; Kit+Sca1+Lin−GFP+ cells from MSCV-control mice, ex vivo 36 h", "result": "no adverse effects on HSCs or downstream progenitors; also recorded: did not affect the normal HSCs"}, {"measurement": "viability of MSCV-HSC control cells", "setting": "[3]; antagonists/inhibitor 10 nM, Δ^12-PGJ3 25 nM, 36 h", "result": "not affected"}, {"measurement": "MCL-1 expression", "setting": "MCL-1", "result": "decreases the expression MCL1"}, {"measurement": "WBC counts, other hematological parameters, survival", "setting": "[4]", "result": "had no effect on WBC counts or other hematological parameters or survival"}, {"measurement": "total colonies of human bone marrow cells", "setting": "[5]", "result": "had no effect"}, {"measurement": "survivin expression", "setting": "Survivin", "result": "decreases the expression of survivin"}]}
